These molecules were tested on MDA-MB-453 (assay: normalised viability (% of control), CellTiter-Blue; higher = more viable cells (about 100 = DMSO control)). Details: incubation time: 72 h.
Protocol: (§1)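 DSRT, CellTiter-Blue viability, 72 h incubation. Signal is normalised to DMSO and benzethonium chloride controls. Value is the normalised response at dose 6.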

Row | SMILES | normalised viability
1 | NC(=O)Nc1cc(-c2cccc(F)c2)sc1C(=O)N[C@H]1CCCNC1 [AZD 7762] (30 nM) | 110%
2 | COc1cc2nccc(Oc3ccc(NC(=O)C4(C(=O)Nc5ccc(F)cc5)CC4)cc3)c2cc1OC [Cabozantinib] (30 nM) | 96.5%
3 | N[C@@H](CSC(c1ccccc1)(c1ccccc1)c1ccccc1)C(=O)O [S-trityl-L-cysteine] (1200 nM) | 90.5%
4 | Oc1nc(-c2ccc(C(F)(F)F)cc2)nc2c1CSCC2 [XAV-939] (300 nM) | 93.8%
5 | CC(=O)Nc1ccc(C(=O)Nc2ccccc2N)cc1 [CI-994] (30 nM) | 102%
6 | Cc1ccc(-n2nc(C(C)(C)C)cc2NC(=O)Nc2ccc(OCCN3CCOCC3)c3ccccc23)cc1 [Doramapimod] (300 nM) | 105%
7 | C[C@@H](Oc1cc(-c2cnn(C3CCNCC3)c2)cnc1N)c1c(Cl)ccc(F)c1Cl [Crizotinib] (300 nM) | 71.1%
8 | Cn1c(Nc2ccc(C(F)(F)F)cc2)nc2cc(Oc3ccnc(-c4ncc(C(F)(F)F)[nH]4)c3)ccc21 [RAF265] (30 nM) | 88.3%
9 | O=C1CCC(N2C(=O)c3ccccc3C2=O)C(=O)N1 (centres undefined) [Thalidomide] (300 nM) | 103%
10 | CO[C@H]1/C=C\C=C(/C)C(=O)NC2=CC(=O)C(NCCN(C)C)=C(C[C@@H](C)C[C@H](OC)[C@H](O)[C@@H](C)/C=C(\C)[C@@H]1OC(N)=O)C2=O [Alvespimycin] (30 nM) | 7.17%
11 | N.N.[Cl][Pt][Cl] [Cisplatin] (300 nM) | 107%
12 | Clc1ccc(Nc2nnc(Cc3ccncc3)c3ccccc23)cc1 [Vatalanib] (300 nM) | 105%
13 | CN(N=O)C(=O)N[C@@H](C=O)[C@@H](O)[C@H](O)[C@H](O)CO [Streptozocin] (300 nM) | 102%

What follows are molecules tested on CAL-148 in the same assay as above. Details: incubation time: 72 h.
Protocol: as §1

Row | SMILES | normalised viability
14 | O=P1(NCCCl)OCCCN1CCCl (centres undefined) [Ifosfamide] (300 nM) | 109%
15 | NC(=O)Nc1cc(-c2cccc(F)c2)sc1C(=O)N[C@H]1CCCNC1 [AZD 7762] (30 nM) | 93.7%
16 | COc1cc2nccc(Oc3ccc(NC(=O)C4(C(=O)Nc5ccc(F)cc5)CC4)cc3)c2cc1OC [Cabozantinib] (30 nM) | 111%
17 | N[C@@H](CSC(c1ccccc1)(c1ccccc1)c1ccccc1)C(=O)O [S-trityl-L-cysteine] (1200 nM) | 114%
18 | Oc1nc(-c2ccc(C(F)(F)F)cc2)nc2c1CSCC2 [XAV-939] (300 nM) | 93.3%
19 | CC(=O)Nc1ccc(C(=O)Nc2ccccc2N)cc1 [CI-994] (30 nM) | 92.8%
20 | Cc1ccc(-n2nc(C(C)(C)C)cc2NC(=O)Nc2ccc(OCCN3CCOCC3)c3ccccc23)cc1 [Doramapimod] (300 nM) | 91.3%
21 | C[C@@H](Oc1cc(-c2cnn(C3CCNCC3)c2)cnc1N)c1c(Cl)ccc(F)c1Cl [Crizotinib] (300 nM) | 101%
22 | Cn1c(Nc2ccc(C(F)(F)F)cc2)nc2cc(Oc3ccnc(-c4ncc(C(F)(F)F)[nH]4)c3)ccc21 [RAF265] (30 nM) | 86.2%
23 | O=C1CCC(N2C(=O)c3ccccc3C2=O)C(=O)N1 (centres undefined) [Thalidomide] (300 nM) | 117%
24 | CO[C@H]1/C=C\C=C(/C)C(=O)NC2=CC(=O)C(NCCN(C)C)=C(C[C@@H](C)C[C@H](OC)[C@H](O)[C@@H](C)/C=C(\C)[C@@H]1OC(N)=O)C2=O [Alvespimycin] (30 nM) | 48%
25 | N.N.[Cl][Pt][Cl] [Cisplatin] (300 nM) | 104%
26 | Clc1ccc(Nc2nnc(Cc3ccncc3)c3ccccc23)cc1 [Vatalanib] (300 nM) | 88.5%
27 | CN(N=O)C(=O)N[C@@H](C=O)[C@@H](O)[C@H](O)[C@H](O)CO [Streptozocin] (300 nM) | 107%

The molecules below were run on HDQ-P1 in the same assay as above. Details: incubation time: 72 h.
Protocol: as §1

Row | SMILES | normalised viability
28 | O=P1(NCCCl)OCCCN1CCCl (centres undefined) [Ifosfamide] (300 nM) | 85.1%
29 | NC(=O)Nc1cc(-c2cccc(F)c2)sc1C(=O)N[C@H]1CCCNC1 [AZD 7762] (30 nM) | 93.9%
30 | COc1cc2nccc(Oc3ccc(NC(=O)C4(C(=O)Nc5ccc(F)cc5)CC4)cc3)c2cc1OC [Cabozantinib] (30 nM) | 62.5%
31 | N[C@@H](CSC(c1ccccc1)(c1ccccc1)c1ccccc1)C(=O)O [S-trityl-L-cysteine] (1200 nM) | 68.4%
32 | Oc1nc(-c2ccc(C(F)(F)F)cc2)nc2c1CSCC2 [XAV-939] (300 nM) | 112%
33 | CC(=O)Nc1ccc(C(=O)Nc2ccccc2N)cc1 [CI-994] (30 nM) | 100%
34 | Cc1ccc(-n2nc(C(C)(C)C)cc2NC(=O)Nc2ccc(OCCN3CCOCC3)c3ccccc23)cc1 [Doramapimod] (300 nM) | 38%
35 | C[C@@H](Oc1cc(-c2cnn(C3CCNCC3)c2)cnc1N)c1c(Cl)ccc(F)c1Cl [Crizotinib] (300 nM) | 36.5%
36 | Cn1c(Nc2ccc(C(F)(F)F)cc2)nc2cc(Oc3ccnc(-c4ncc(C(F)(F)F)[nH]4)c3)ccc21 [RAF265] (30 nM) | 51.7%
37 | O=C1CCC(N2C(=O)c3ccccc3C2=O)C(=O)N1 (centres undefined) [Thalidomide] (300 nM) | 80.2%
38 | CO[C@H]1/C=C\C=C(/C)C(=O)NC2=CC(=O)C(NCCN(C)C)=C(C[C@@H](C)C[C@H](OC)[C@H](O)[C@@H](C)/C=C(\C)[C@@H]1OC(N)=O)C2=O [Alvespimycin] (30 nM) | 44.2%
39 | N.N.[Cl][Pt][Cl] [Cisplatin] (300 nM) | 78.9%
40 | Clc1ccc(Nc2nnc(Cc3ccncc3)c3ccccc23)cc1 [Vatalanib] (300 nM) | 78.7%
41 | CN(N=O)C(=O)N[C@@H](C=O)[C@@H](O)[C@H](O)[C@H](O)CO [Streptozocin] (300 nM) | 85.4%

Each molecule was assayed on DU-4475 (assay: normalised response (% of control), CellTiter-Glo; higher = more viable cells (100 = DMSO, 0 = benzethonium chloride kill control)). Details: incubation time: 72 h.
Protocol: (§2)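 DSRT, 72 h incubation, CellTox Green / CellTiter-Glo readout. Signal is normalised to DMSO and benzethonium chloride controls. Value is the normalised response at the highest dose.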

Row | SMILES | normalised response
42 | O=C(CCCCCCC(=O)Nc1ccc([C@H]2O[C@@H](CSc3nc(-c4ccccc4)c(-c4ccccc4)o3)C[C@@H](c3ccc(CO)cc3)O2)cc1)NO [Tubacin] (10000 nM) | 70.7%
43 | NC(=O)Nc1cc(-c2cccc(F)c2)sc1C(=O)N[C@H]1CCCNC1 [AZD7762] (1000 nM) | 89.3%
44 | CCCCCCCCCCCCCCCCCCOP(=O)([O-])OC1CC[N+](C)(C)CC1 [Perifosine] (2500 nM) | 95.9%

What follows are molecules tested on MDA-MB-468 in the same assay as above. Details: incubation time: 72 h.
Protocol: as §2

Row | SMILES | normalised response
45 | O=C(CCCCCCC(=O)Nc1ccc([C@H]2O[C@@H](CSc3nc(-c4ccccc4)c(-c4ccccc4)o3)C[C@@H](c3ccc(CO)cc3)O2)cc1)NO [Tubacin] (10000 nM) | 17.2%
46 | NC(=O)Nc1cc(-c2cccc(F)c2)sc1C(=O)N[C@H]1CCCNC1 [AZD7762] (1000 nM) | 31.7%
47 | CCCCCCCCCCCCCCCCCCOP(=O)([O-])OC1CC[N+](C)(C)CC1 [Perifosine] (2500 nM) | 97.5%

What follows are molecules tested on CAL-120 in the same assay as above. Details: incubation time: 72 h.
Protocol: as §2

Row | SMILES | normalised response
48 | O=C(CCCCCCC(=O)Nc1ccc([C@H]2O[C@@H](CSc3nc(-c4ccccc4)c(-c4ccccc4)o3)C[C@@H](c3ccc(CO)cc3)O2)cc1)NO [Tubacin] (10000 nM) | 51.8%
49 | NC(=O)Nc1cc(-c2cccc(F)c2)sc1C(=O)N[C@H]1CCCNC1 [AZD7762] (1000 nM) | 55.7%

Source: the supplement of paper PMC4862054
